One experiment relates to microglia (BV2 cells). Description: NO generation in LPS-treated microglia (anti-inflammatory effect). The class given is cell-based. As to conditions: BV2 cells treated with LPS and drug at the same time; compared to the LPS control group. On the procedure: Microglia (BV2 cells) were treated with LPS to cause an inflammatory response and, at the same time, treated with nebivolol alone, donepezil alone, or nebivolol+donepezil combination to measure the concentration of generated NO.

Experiment [1] concerns Immortalized human neural progenitor cell line (ReNcell VM). As to the kind of experiment: Differentiation of neural progenitor cells into motor neurons (HB9 immunostaining / CellTag). As to conditions: compared to the control group. The class given is cell-based. The procedure:
Immortalized human neural progenitor cell line (ReNcell VM) as a neural progenitor cell that may differentiate into neurons and glial cells was treated with nebivolol alone, donepezil alone, and nebivolol+donepezil combination. Thereafter, immunostaining was performed using an antibody capable of selectively binding to motor neurons (anti-HB9 antibody) and a CellTag probe that stains whole cells. Thereafter, the HB9 positive signal and the value of CellTag were analyzed to determine the number of motor neurons among the total cells, thereby measuring the degree of differentiation of neural precursor cells into motor neurons.

The next experiment relates to neuroblasts (SH-SY5Y). As to the kind of experiment: ROS generation after H2O2 oxidative stress (DCF fluorescence). The class given is cell-based. As to conditions: compared to the control group.
Another experiment relates to SOD1G93A transgenic mice. As to the kind of experiment: Rotarod latency test in ALS animal model. The class given is in vivo. The settings on record: oral once daily from 70 days of age for 70 days, edaravone 15 mg/kg, NDC-011 nebivolol 5 mg/kg+donepezil 3 mg/kg, compared to the normal control group.
[2] abbreviates: ReNcell VM, low concentration (0.01 μM) of nebivolol or donepezil alone.

Procedure for SOD1G93A transgenic mice: SOD1G93A transgenic mice as ALS animal models were used to verify the in vivo efficacy of the nebivolol and donepezil complex. Edaravone (15 mg/kg) as a commercially available ALS treatment, or a nebivolol and donepezil complex (NDC-011, nebivolol 5 mg/kg+donepezil 3 mg/kg) according to the present invention was administered to mice from 70 days of age once daily. Each dose was orally administered for 70 days. The rotarod latency test was performed immediately before the start of drug administration to evaluate the motor ability of each animal, and, thereafter, the rotarod latency test was performed during the drug administration period at 7-day intervals to evaluate the motor ability of the ALS animals.

For `COc1cc2c(cc1OC)C(=O)C(CC1CCN(Cc3ccccc3)CC1)C2` (centres unmarked) [donepezil, Donepezil], the “concentration of generated NO” value in the experiment on microglia (BV2 cells) was “significant reduction in NO”. For the same compound, the “HB-9 expression (motor neuron marker)” value in experiment [1] (setting [2]) is listed as “not observed”. In the experiment on neuroblasts (SH-SY5Y), the “amount of generated reactive oxygen species (ROS)” value is listed as “no significant decrease”.
As for `CC1=NN(c2ccccc2)C(=O)C1` [edaravone, Edaravone], in the experiment with SOD1G93A transgenic mice, the “age from which exercise capacity decreased (rotarod latency)” value was found to be 84 days.
Consider `OC(CNCC(O)C1CCc2cc(F)ccc2O1)C1CCc2cc(F)ccc2O1` (centres unmarked) [nebivolol, Nebivolol], for which, in the experiment on microglia (BV2 cells), the “concentration of generated NO” value is reported as “significant reduction in NO”. Further, the “HB-9 expression (motor neuron marker)” value in experiment [1] (ReNcell VM under differentiation conditions) was “significant increase in HB-9 expression”; in experiment [1] (setting [2]), “not observed”. Besides, the “amount of generated reactive oxygen species (ROS)” value in the experiment on neuroblasts (SH-SY5Y) is recorded as “no significant decrease”.
